± gives the expanded uncertainty stated by the source.
Experiment: xn = mol fraction of the nth substance listed
Settings: 101 kPa, Liquid; for mass density: Vibrating tube method

CCC(C)CO (stereo unspecified) [2-methyl-1-butanol] + CCO
Settings | kinematic viscosity, 293.15 K [m2/s] | kinematic viscosity, 298.15 K [m2/s] | kinematic viscosity, 303.15 K [m2/s] | mass density, 293.15 K [kg/m3] | mass density, 298.15 K [kg/m3] | mass density, 303.15 K [kg/m3] | mass density, 308.15 K [kg/m3]
x1 = 0.0268 | – | – | – | 790.9 ± 1 | 786.6 ± 1 | 782.3 ± 1 | 778 ± 1
x1 = 0.0549 | – | – | – | 792.1 ± 1 | 787.9 ± 1 | 783.7 ± 1 | 779.4 ± 1
x1 = 0.0845 | – | – | – | 793.4 ± 1 | 789.2 ± 1 | 785 ± 1 | 780.9 ± 1
x1 = 0.0915 | 1.66e-06 ± 7.8e-08 | 1.5e-06 ± 7.1e-08 | 1.32e-06 ± 6.3e-08 | – | – | – | –
x1 = 0.1156 | – | – | – | 794.7 ± 1 | 790.6 ± 1 | 786.4 ± 1 | 782.3 ± 1
x1 = 0.1484 | – | – | – | 795.9 ± 1 | 791.9 ± 1 | 787.8 ± 1 | 783.8 ± 1
x1 = 0.1753 | 1.8e-06 ± 8.3e-08 | 1.61e-06 ± 7.6e-08 | 1.41e-06 ± 6.7e-08 | – | – | – | –
x1 = 0.183 | – | – | – | 797.2 ± 1 | 793.2 ± 1 | 789.2 ± 1 | 785.2 ± 1
x1 = 0.2524 | 1.92e-06 ± 8.9e-08 | 1.71e-06 ± 8e-08 | 1.5e-06 ± 7.1e-08 | – | – | – | –
x1 = 0.2584 | – | – | – | 799.9 ± 1 | 796 ± 1 | 792 ± 1 | 788.1 ± 1
x1 = 0.3235 | 2.04e-06 ± 9.4e-08 | 1.82e-06 ± 8.4e-08 | 1.59e-06 ± 7.4e-08 | – | – | – | –
x1 = 0.3433 | – | – | – | 802.7 ± 1 | 798.8 ± 1 | 795 ± 1 | 791.2 ± 1
x1 = 0.3894 | 2.17e-06 ± 9.9e-08 | 1.93e-06 ± 8.9e-08 | 1.68e-06 ± 7.9e-08 | – | – | – | –
x1 = 0.4395 | – | – | – | 805.5 ± 1 | 801.8 ± 1 | 798 ± 1 | 794.3 ± 1
x1 = 0.4505 | 2.32e-06 ± 1.1e-07 | 2.06e-06 ± 9.5e-08 | 1.8e-06 ± 8.4e-08 | – | – | – | –
x1 = 0.5495 | – | – | – | 808.4 ± 1 | 804.8 ± 1 | 801.1 ± 1 | 797.5 ± 1
x1 = 0.5605 | 2.67e-06 ± 1.2e-07 | 2.36e-06 ± 1.1e-07 | 2.06e-06 ± 9.5e-08 | – | – | – | –
x1 = 0.6567 | 3.06e-06 ± 1.4e-07 | 2.69e-06 ± 1.2e-07 | 2.35e-06 ± 1.1e-07 | – | – | – | –
x1 = 0.6765 | – | – | – | 811.4 ± 1 | 807.9 ± 1 | 804.2 ± 1 | 800.7 ± 1
x1 = 0.7416 | 3.47e-06 ± 1.5e-07 | 3.04e-06 ± 1.4e-07 | 2.66e-06 ± 1.2e-07 | – | – | – | –
x1 = 0.817 | 3.92e-06 ± 1.7e-07 | 3.43e-06 ± 1.5e-07 | 3e-06 ± 1.3e-07 | – | – | – | –
x1 = 0.8247 | – | – | – | 814.5 ± 1 | 811 ± 1 | 807.4 ± 1 | 803.9 ± 1
x1 = 0.8844 | 4.45e-06 ± 2e-07 | 3.89e-06 ± 1.7e-07 | 3.41e-06 ± 1.5e-07 | – | – | – | –
x1 = 0.9451 | 5.14e-06 ± 2.2e-07 | 4.49e-06 ± 2e-07 | 3.94e-06 ± 1.7e-07 | – | – | – | –
x1 = 1 | 6.11e-06 ± 2.5e-07 | 5.34e-06 ± 2.3e-07 | 4.69e-06 ± 2e-07 | 817.6 ± 1 | 814.1 ± 1 | 810.5 ± 1 | 807.1 ± 1
